The target of the test is T1, MDM2 (Homo sapiens, UniProt Q00987).
T1 construct: 20 nM GST-MDM2 protein (aa 23-117)
In words: Mdm2-p53 Inhibition AlphaScreen. The format is binding. The note with it: 20 nM GST-MDM2 protein (aa 23-117), 20 nM biotinylated p53 wt peptide. On the procedure:
Mdm2-p53 Inhibition AlphaScreen
15 μL of compound in 20% DMSO (serial pre-dilutions of compound are done in 100% DMSO) is pipetted to the wells of a white OptiPlate-96 (PerkinElmer). A mix consisting of 20 nM GST-MDM2 protein (aa 23-117) and 20 nM biotinylated p53 wt peptide (encompassing aa 16-27 of wt human p53, amino acid sequence QETFSDLWKLLP-Ttds-Lys-Biotin, molecular weight 2132.56 g/mol) is prepared in assay buffer (50 mM Tris/HCl pH 7.2; 120 mM NaCl; 0.1% bovine serum albumin (BSA); 5 mM dithiothreitol (DTT); 1 mM ethylenediaminetetraacetic acid (EDTA); 0.01% Tween 20). 30 μL of the mix is added to the compound dilutions and incubated for 15 min at rt while gently shaking the plate at 300 rounds per minute (rpm). Subsequently, 15 μL of premixed AlphaLISA Glutathione Acceptor Beads and AlphaScreen Streptavidin Donor Beads from PerkinElmer (in assay buffer at a concentration of 10 μg/mL each) are added and the samples are incubated for 30 min at rt in the dark (shaking 300 rpm). Afterwards, the signal is measured in a PerkinElmer Envision HTS Multilabel Reader using the AlphaScreen protocol from PerkinElmer.
Each plate contains negative controls where biotinylated p53-peptide and GST-MDM2 are left out and replaced by assay buffer. Negative control values are entered as low basis value when using the software GraphPad Prism for calculations. Furthermore, a positive control (5% DMSO instead of test compound; with protein/peptide mix) is pipetted. Determination of IC50 values are carried out using GraphPad Prism 3.03 software (or updates thereof).
On the technique in general: In Alpha technology, singlet oxygen from a donor bead excites a nearby acceptor bead.

T1 sequence (Q00987 23-117): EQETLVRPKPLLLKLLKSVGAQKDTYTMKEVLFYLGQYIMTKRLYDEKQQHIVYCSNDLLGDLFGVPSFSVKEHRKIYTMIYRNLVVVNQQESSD

By IC50 is commonly meant the concentration that inhibits the measured activity by half. A low value points to greater potency. In turn, `O=C(O)c1ccc([C@H]2C[C@H]3[C@@H](N2)[C@H](c2cccc(Cl)c2F)[C@]2(C(=O)Nc4cc(Cl)c(F)cc42)N3CC2CC2)cc1` [Compound I-35] gave an IC50 of 9 nM.

As for `CCOc1cccc(CN2[C@@H]3CCN(CC(=O)O)[C@@H]3[C@@H](c3cccc(Cl)c3F)[C@@]23C(=O)Nc2cc(Cl)ccc23)c1` [Compound I-71], the IC50 was determined as 722 nM.

`O=C(O)c1ccc(C(=O)N2CC[C@H]3C2[C@H](c2cccc(Cl)c2F)[C@]2(C(=O)Nc4cc(Cl)ccc42)N3CC2CC2)cc1` (stereo partly shown) [Compound I-92] came in with an IC50 of 106 nM.

`O=C(O)C[C@H]1C[C@H]2[C@@H](N1)[C@H](c1cccc(Cl)c1)[C@]1(C(=O)Nc3cc(Cl)ccc31)N2CC1CC1` [Compound I-46] returned an IC50 of 280 nM.

`O=C(O)c1[nH]ncc1CN1CC[C@H]2[C@@H]1[C@H](c1cccc(Cl)c1F)[C@]1(C(=O)Nc3cc(Cl)ccc31)N2CC1CC1` [Compound I-72]: the IC50 was found to be 1300 nM.

As for `O=C(O)c1ccc([C@@H]2C[C@H]3[C@@H](N2)[C@H](c2cccc(Cl)c2F)[C@]2(C(=O)Nc4cc(Cl)ccc42)N3CC2CC2)cc1` [Compound I-30], the midpoint of inhibition, the IC50, lay at 41 nM.

`CN(C)C(=O)CCC(=O)N1CC[C@H]2C1[C@H](c1cccc(Cl)c1F)[C@]1(C(=O)Nc3cc(Cl)ccc31)N2CC1CC1` (stereo partly shown) [Compound I-84] showed an IC50 of 107 nM.

Compound `O=C(O)CN1CC[C@H]2[C@@H]1[C@H](c1cccc(Cl)c1F)[C@]1(C(=O)Nc3cc(Cl)ccc31)N2CC1CC1` [Compound I-67] gave an IC50 of 40 nM.

The compound `O=C(O)C1CCC(CN2CC[C@H]3[C@@H]2[C@H](c2cccc(Cl)c2F)[C@]2(C(=O)Nc4cc(Cl)ccc42)N3CC2CC2)CC1` (stereo partly shown) [Compound I-61] returned an IC50 of 274 nM.

Compound `O=C(O)c1cccc([C@@H]2C[C@H]3[C@@H](N2)[C@H](c2cccc(Cl)c2)[C@]2(C(=O)Nc4cc(Cl)ccc42)N3CC2CC2)c1` [Compound I-28] returned an IC50 of 249 nM.

Compound `CCOc1cccc(CN2[C@H]3CCN(CC4CC4C(=O)O)[C@H]3[C@H](c3cccc(Cl)c3F)[C@]23C(=O)Nc2cc(Cl)ccc23)c1` (stereo partly shown) [Compound I-64] registered a concentration for half-maximal inhibition (IC50) of 6 nM.

As for `CC(=O)Nc1ccc(C(=O)N2CC[C@H]3C2[C@H](c2cccc(Cl)c2F)[C@]2(C(=O)Nc4cc(Cl)ccc42)N3CC2CC2)cc1` (stereo partly shown) [Compound I-82], the IC50 is 389 nM.

In turn, `CN(C)c1cccc(C(=O)N2CC[C@H]3C2[C@H](c2cccc(Cl)c2F)[C@]2(C(=O)Nc4cc(Cl)ccc42)N3CC2CC2)c1` (stereo partly shown) [Compound I-87] gave an IC50 of 607 nM.

For the compound `NC(=O)c1ccc([C@H]2C[C@H]3[C@@H](N2)[C@H](c2cccc(Cl)c2F)[C@]2(C(=O)Nc4cc(Cl)ccc42)N3CC2CC2)cc1` [Compound I-75], half-maximal inhibition (IC50) was put at 16 nM.

As for `O=C(O)c1ccc([C@H]2C[C@H]3[C@@H](N2)[C@H](c2cccc(Cl)c2)[C@]2(C(=O)Nc4cc(Cl)ccc42)N3CC2CC2)cc1` [Compound I-24], half-maximal inhibition (IC50) was put at 23 nM.

Compound `COc1cc(C(=O)O)ccc1[C@@H]1C[C@H]2[C@@H](N1)[C@H](c1cccc(Cl)c1)[C@]1(C(=O)Nc3cc(Cl)ccc31)N2CC1CC1` [Compound I-26] showed an IC50 of 173 nM.

Consider `COc1cc([C@@H]2C[C@@H]3[C@H](N2)[C@@H](c2cccc(Cl)c2F)[C@@]2(C(=O)Nc4cc(Cl)ccc42)N3CC2CC2)ccc1C(=O)O` [Compound I-32], for which the IC50 stood at 373 nM.

`CCOc1cccc(CN2[C@H]3C[C@@H](c4ccc(C(=O)O)cc4)N[C@H]3[C@H](c3cccc(Cl)c3F)[C@]23C(=O)Nc2cc(Cl)ccc23)c1` [Compound I-37] showed an IC50 of 5 nM.

Regarding `CCOc1cccc(CN2[C@@H]3CCN(CC4CC4C(=O)O)[C@@H]3[C@@H](c3cccc(Cl)c3F)[C@@]23C(=O)Nc2cc(Cl)ccc23)c1` (stereo partly shown) [Compound I-66], the IC50 worked out at 209 nM.

Compound `O=C(O)c1ccc(CN2CC[C@H]3[C@@H]2[C@H](c2cccc(Cl)c2F)[C@]2(C(=O)Nc4cc(Cl)ccc42)N3CC2CC2)cc1` [Compound I-68] came in with an IC50 of 91 nM.

In the case of `CC(=O)N1CC[C@H]2C1[C@H](c1cccc(Cl)c1F)[C@]1(C(=O)Nc3cc(Cl)ccc31)N2CC1CC1` (stereo partly shown) [Compound I-76], 212 nM corresponded to half-maximal inhibition (IC50).

`CCOc1cccc(CN2[C@H]3CCN(C(C)=O)C3[C@H](c3cccc(Cl)c3F)[C@]23C(=O)Nc2cc(Cl)ccc23)n1` (stereo partly shown) [Compound I-91] returned an IC50 of 180 nM.

In turn, `O=C(O)c1ccc([C@H]2C[C@H]3[C@@H](N2)[C@H](c2cccc(Cl)c2F)[C@]2(C(=O)Nc4cc(Cl)ccc42)N3CC2CC2)cc1` [Compound I-29] yielded an IC50 of 5 nM.

`O=C(O)c1ccc([C@H]2CC[C@H]3[C@@H](N2)[C@H](c2cccc(Cl)c2F)[C@]2(C(=O)Nc4cc(Cl)ccc42)N3CC2CC2)cc1` [Compound I-39] returned an IC50 of 124 nM.

Regarding `CCOc1cccc(CN2[C@H]3CCN(CC(=O)O)[C@H]3[C@H](c3cccc(Cl)c3F)[C@]23C(=O)Nc2cc(Cl)ccc23)c1` [Compound I-69], it took 3 nM to reach half-maximal inhibition (IC50).

`O=C(O)c1ccc([C@@H]2C[C@H]3[C@@H](N2)[C@H](c2cccc(Cl)c2)[C@]2(C(=O)Nc4cc(Cl)ccc42)N3CC2CC2)cc1` [Compound I-25] yielded an IC50 of 49 nM.

Compound `CCOc1cccc(CN2[C@H]3CCN(C(C)=O)C3[C@H](c3cccc(Cl)c3F)[C@]23C(=O)Nc2cc(Cl)ccc23)c1` (stereo partly shown) [Compound I-88] showed a half-maximal inhibitory concentration (IC50) of 28 nM.

Turning to `CCOc1cccc(CN2[C@H]3C[C@H](c4ccc(C(=O)O)cc4)N[C@H]3[C@H](c3cccc(Cl)c3F)[C@]23C(=O)Nc2cc(Cl)ccc23)c1` [Compound I-36], the IC50 was found to be 4 nM.

In the case of `CN(C)CC(=O)N1CC[C@H]2C1[C@H](c1cccc(Cl)c1F)[C@]1(C(=O)Nc3cc(Cl)ccc31)N2CC1CC1` (stereo partly shown) [Compound I-78], the IC50 was determined as 381 nM.

As for `O=C(O)C1CC1CN1CC[C@H]2[C@@H]1[C@H](c1cccc(Cl)c1F)[C@]1(C(=O)Nc3cc(Cl)ccc31)N2CC1CC1` (stereo partly shown) [Compound I-63], half-maximal inhibition (IC50) was put at 130 nM.

`CCOc1cccc(CN2[C@H]3CCN(CC4CCC(C(=O)O)CC4)[C@H]3[C@H](c3cccc(Cl)c3F)[C@]23C(=O)Nc2cc(Cl)ccc23)c1` (stereo partly shown) [Compound I-62] gave an IC50 of 24 nM.

`CCOc1cccc(CN2[C@H]3CCN(C(C)=O)C3[C@H](c3ccnc(Cl)c3F)[C@]23C(=O)Nc2cc(Cl)ccc23)c1` (stereo partly shown) [Compound I-90] displayed an IC50 of 6 nM.

Take `CCOc1cccc(CN2[C@H]3CCN(Cc4cn[nH]c4C(=O)O)[C@H]3[C@H](c3cccc(Cl)c3F)[C@]23C(=O)Nc2cc(Cl)ccc23)c1` [Compound I-73]: the half-maximal inhibitory concentration (IC50) was 29 nM.

As for `CCOC(=O)c1ccc([C@H]2C[C@H]3[C@@H](N2)[C@H](c2cccc(Cl)c2F)[C@]2(C(=O)Nc4cc(Cl)c(F)cc42)N3CC2CC2)cc1` [Compound I-13], the IC50 is 623 nM.

With `CC(=O)Nc1ccc(C(=O)N2CC[C@H]3C2[C@H](c2cccc(Cl)c2F)[C@]2(C(=O)Nc4cc(Cl)ccc42)N3CC2CC2)c(C)c1` (stereo partly shown) [Compound I-81], the IC50 came to 444 nM.

In the case of `O=C(O)c1cccc([C@H]2C[C@H]3[C@@H](N2)[C@H](c2cccc(Cl)c2)[C@]2(C(=O)Nc4cc(Cl)ccc42)N3CC2CC2)c1` [Compound I-27], the IC50 is 32 nM.

In the case of `O=C(CCO)N1CC[C@H]2C1[C@H](c1cccc(Cl)c1F)[C@]1(C(=O)Nc3cc(Cl)ccc31)N2CC1CC1` (stereo partly shown) [Compound I-83], the IC50 came to 102 nM.

`O=C(O)C[C@@H]1C[C@H]2[C@@H](N1)[C@H](c1cccc(Cl)c1)[C@]1(C(=O)Nc3cc(Cl)ccc31)N2CC1CC1` [Compound I-47]: the IC50 is 280 nM.

With `CCOc1cccc(CN2[C@H]3CCN(CC4CC4C(=O)O)[C@H]3[C@H](c3cccc(Cl)c3F)[C@]23C(=O)Nc2cc(Cl)ccc23)c1` (stereo partly shown) [Compound I-65], the IC50 stood at 3 nM.

`COCC(=O)N1CC[C@H]2C1[C@H](c1cccc(Cl)c1F)[C@]1(C(=O)Nc3cc(Cl)ccc31)N2CC1CC1` (stereo partly shown) [Compound I-77] showed an IC50 of 119 nM.

Compound `O=C(Cc1cccnc1)N1CC[C@H]2C1[C@H](c1cccc(Cl)c1F)[C@]1(C(=O)Nc3cc(Cl)ccc31)N2CC1CC1` (stereo partly shown) [Compound I-79] registered an IC50 of 386 nM.

As to `CCOc1cccc(CN2[C@H]3C[C@H](c4ccc(C(=O)O)cc4)N[C@H]3[C@H](c3cccc(Cl)c3F)[C@]23C(=O)Nc2cc(Cl)ccc23)c1` [Compound I-38], the IC50 worked out at 2 nM.

As for `O=C(O)c1ccc([C@@H]2CC[C@H]3[C@@H](N2)[C@H](c2cccc(Cl)c2F)[C@]2(C(=O)Nc4cc(Cl)ccc42)N3CC2CC2)cc1` [Compound I-40], the IC50 amounted to 133 nM.

Turning to `O=C1Nc2nc(Cl)ccc2[C@@]12[C@@H](c1cccc(Cl)c1F)[C@@H]1NCC[C@@H]1N2CC1CC1` [Compound I-23], the IC50 stood at 871 nM.

Consider `O=C(O)c1cccc(C(=O)N2CC[C@H]3C2[C@H](c2cccc(Cl)c2F)[C@]2(C(=O)Nc4cc(Cl)ccc42)N3CC2CC2)c1` (stereo partly shown) [Compound I-93], for which the IC50 worked out at 377 nM.

Consider `O=C(c1ncccn1)N1CC[C@H]2C1[C@H](c1cccc(Cl)c1F)[C@]1(C(=O)Nc3cc(Cl)ccc31)N2CC1CC1` (stereo partly shown) [Compound I-80], for which the IC50 was 596 nM.

These data come from US10138251B2, “Spiro[3H-indole-3,2′-pyrrolidin]-2(1H)-one compounds and derivatives as MDM2-P53 inhibitors” (Boehringer Ingelheim International GmbH, priority 2014, dated 2018).
